Laboratory results: PubChem BioAssay AID1648 (Sanford-Burnham Center for Chemical Genomics, 2009)
Activity calls are given as the source filed them. The rule behind the calls is not given here.

These compounds were tested against Serine/threonine-protein kinase mTOR (Homo sapiens) (UniProt P42345) (assay: mTOR FRB domain ligand binding – biophysical, NMR (AID 1648)). Conditions: NMR binding to FRB domain, chemical shift.
Chain of Serine/threonine-protein kinase mTOR (Homo sapiens) (P42345 2015-2114): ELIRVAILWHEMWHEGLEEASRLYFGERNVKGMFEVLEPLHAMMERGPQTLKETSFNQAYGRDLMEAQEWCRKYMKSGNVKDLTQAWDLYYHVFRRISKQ

| SMILES | Kd |
| --- | --- |
| O=C(Nc1nccs1)c1cccnc1 | > 4 mM (inactive) |
| CC(C)n1c(Nn2cnnc2)nc2ccccc21 | > 4 mM (inactive) |
| Cn1c(=O)c2[nH]cnc2n(C)c1=O | > 4 mM (inactive) |
| CC(=O)N1CCN(S(=O)(=O)c2ccccc2)CC1 | > 4 mM (inactive) |
| Clc1ncc2[nH]cnc2n1 | > 4 mM (inactive) |
| Cc1ccc2c(c1)CCCN2C(=O)c1ccncc1 | > 4 mM (inactive) |
| COc1cc(CNC(=O)CCCC/C=C/C(C)C)ccc1O | > 4 mM (inactive) |
| O=C(O)Cn1cc(C(=O)C2CC2)c2ccccc21 | > 4 mM (inactive) |
| O=C(NC(=S)NN1CCOCC1)c1cccs1 | > 4 mM (inactive) |
| COC(=O)c1cc2ccccc2cn1 | > 4 mM (inactive) |
| Cn1cnc2c1c(=O)[nH]c(=O)n2C | > 4 mM (inactive) |
| O=C1CCC(=O)N1c1cccc([N+](=O)[O-])c1 | > 4 mM (inactive) |
| O=c1c[n+]([O-])c2ccccc2n1OCc1ccccc1 | > 4 mM (inactive) |
| Cc1nn2c(=O)c(NC(=O)c3ccccc3)cnc2s1 | > 4 mM (inactive) |
| Cc1noc(C)c1C(=O)NCc1cccs1 | > 4 mM (inactive) |
| Cc1ccc(C(=O)Nc2c[nH]c(=O)[nH]c2=O)cc1 | > 4 mM (inactive) |
| Cc1nnsc1C(=O)O | > 4 mM (inactive) |
| c1ccc(Cc2nnc3sc(-c4cccnc4)nn23)cc1 | > 4 mM (inactive) |
| COc1ccc(C(C)=O)c(O)c1 | > 4 mM (inactive) |
| CC1(C)CC[C@]2(C(=O)O)CC[C@]3(C)C(=CCC4[C@@]5(C)CC[C@@H](O)C(C)(C)C5CC[C@]43C)C2C1 (some centres undefined) | > 4 mM (inactive) |
| NCCCCNCCCN | > 4 mM (inactive) |
| CN(C)S(=O)(=O)NCc1ccc2c(c1)OCO2 | > 4 mM (inactive) |
| Nc1nnc(SCc2ccc(F)cc2Cl)s1 | > 4 mM (inactive) |
| CC(C)[C@@H]1CC[C@@H](C)C[C@H]1OC(=O)c1ccccc1 | > 4 mM (inactive) |
| COc1cc(OC)c(OC)cc1C=O | > 4 mM (inactive) |

| SMILES | Kd |
| --- | --- |
| Nc1ccncc1 | > 4 mM (inactive) |
| OCCOc1ccc(C2=NCCO2)cc1 | > 4 mM (inactive) |
| COc1ccc2c(c1)OCC(Cc1ccc(OC)c(OC)c1)C2=O (centres undefined) | > 4 mM (inactive) |
| CC(=O)Nc1ccc(Oc2nc(C)cc(C)n2)cc1 | > 4 mM (inactive) |
| NC(=O)CN1CC(=O)NC(=O)C1 | > 4 mM (inactive) |
| O=C(O)c1ccc2ncccc2c1 | > 4 mM (inactive) |
| c1cncc(Nc2nc(-c3cccnc3)cs2)c1 | > 4 mM (inactive) |
| NC(=O)C1CCN(c2nccc(C(F)(F)F)n2)CC1 | > 4 mM (inactive) |
| CCc1ccc2oc(-c3cc(N)cc(C)c3O)nc2c1 | > 4 mM (inactive) |
| CCOC(=O)c1csc(C)n1 | > 4 mM (inactive) |
| Nc1ncnc(NCCO)c1[N+](=O)[O-] | > 4 mM (inactive) |
| Nc1cccc(-n2cnnn2)c1 | > 4 mM (inactive) |
| CC(C)c1c(O)ccc2c1CCC1C(C)(C)CCC[C@]21C (some centres undefined) | > 4 mM (inactive) |
| O=C1CNC(=O)N1c1cccc(Cl)c1 | > 4 mM (inactive) |
| COc1cccc(-c2csc(NC(C)=O)n2)c1 | > 4 mM (inactive) |
| CN(C)N1C(=O)C2C3C=CC(O3)C2C1=O (centres undefined) | > 4 mM (inactive) |
| CC(=O)c1cnc(Nc2nc(C)c3ccccc3n2)nc1C | > 4 mM (inactive) |
| O=C(O)Cc1nc(-c2ccncc2)n[nH]1 | > 4 mM (inactive) |
| OCc1cccc2c1OCO2 | > 4 mM (inactive) |
| O=C(Cn1cncn1)c1ccc(F)c(F)c1 | > 4 mM (inactive) |
| Cn1c(=O)[nH]c2nc[nH]c2c1=O | > 4 mM (inactive) |
| O=C1CCCC(=O)N1Cc1ccco1 | > 4 mM (inactive) |
| COC(=O)c1cccc(Cn2nnc3ccccc3c2=O)c1 | > 4 mM (inactive) |
| CC(=O)Nc1ccccc1-c1ccccc1NC(C)=O | > 4 mM (inactive) |
| O=c1ccc(=O)n(CN2CCc3ccccc3C2)[nH]1 | > 4 mM (inactive) |

| SMILES | Kd |
| --- | --- |
| CCOC(=O)C1C(C=C(C)C)C1(C)C (centres undefined) | > 4 mM (inactive) |
| Cc1oc(-c2ccccc2)cc1C(N)=O | > 4 mM (inactive) |
| COC(=O)c1ccc2nsnc2c1 | > 4 mM (inactive) |
| NC(=S)N1CCC(c2ccccc2)=N1 | > 4 mM (inactive) |
| CN(C)C(=O)Oc1cccc(-c2nnco2)c1 | > 4 mM (inactive) |
| CC1CCN(C(=O)c2cc3ccccc3o2)CC1 | > 4 mM (inactive) |
| Cc1ccc(/C=N/n2c(C)nnc2C)cc1 | > 4 mM (inactive) |
| C=C(C)C1(O)OC(=O)C=C1OC (centres undefined) | > 4 mM (inactive) |
| Cc1cc(N)ccc1NC(=O)c1ccco1 | > 4 mM (inactive) |
| Cc1cn2c(-c3cccnc3)nnc2s1 | > 4 mM (inactive) |
| O=C(Nc1ccon1)c1csc2ccccc12 | > 4 mM (inactive) |
| COc1c(F)c(F)c(-c2csc(N)n2)c(F)c1F | > 4 mM (inactive) |
| Cc1cc(C(=O)NCc2ccco2)cs1 | > 4 mM (inactive) |
| O=C(Nc1ccccc1)Nc1ccccc1 | > 4 mM (inactive) |
| COCC(=O)Nc1nc2ccc(C)cc2s1 | > 4 mM (inactive) |
| NC(=O)c1ccc(C(N)=O)c(-c2ccccc2)c1 | > 4 mM (inactive) |
| NC(N)=NOCC[C@H](N)C(=O)O | > 4 mM (inactive) |
| CCNC(=O)CC[C@H](N)C(=O)O | > 4 mM (inactive) |
| CC(=O)OC[C@H]1O[C@@H](Oc2cc(OC(C)=O)c3c(=O)cc(-c4ccc(OC(C)=O)cc4)oc3c2)[C@H](OC(C)=O)[C@@H](OC(C)=O)[C@@H]1OC(C)=O | > 4 mM (inactive) |
| COc1ccc(-c2ccc(SCC(N)=O)nn2)cc1 | > 4 mM (inactive) |
| NS(=O)(=O)c1ccc(NC(=O)C2CC2)cc1 | > 4 mM (inactive) |
| Cc1cccc(C)c1NC(=O)/C=C/C(=O)O | > 4 mM (inactive) |
| Cc1nccn1CCC(=O)O | > 4 mM (inactive) |
| CC(CC(=O)NN)C1(O)CCCCC1 (centres undefined) | > 4 mM (inactive) |
| CC(=O)O[C@H]1CC[C@@]2(C)C(=CC(=O)C3C4CCC(C(C)CCCC(C)C)[C@@]4(C)CCC32)C1 (some centres undefined) | > 4 mM (inactive) |

| SMILES | Kd |
| --- | --- |
| O=C(NC1=NCCS1)c1cccc(F)c1 | > 4 mM (inactive) |
| OCc1nccn1Cc1ccccc1 | > 4 mM (inactive) |
| CC(=O)Nc1ccc(-c2cn3ccsc3n2)cc1 | > 4 mM (inactive) |
| O=c1[nH]cnc2c1nnn2Cc1ccccc1 | > 4 mM (inactive) |
| CCn1c(=O)cc(N2CCC3(CC2)OCCO3)[nH]c1=O | > 4 mM (inactive) |
| COC(=O)CC1=Nc2ccccc2NC(=O)C1 | > 4 mM (inactive) |
| NC(=O)C1CCN(C(=O)c2ccccc2)CC1 | > 4 mM (inactive) |
| OCC1CCN(c2ncccn2)CC1 | > 4 mM (inactive) |
| CS(=O)(=O)Nc1cc2c3c(c1)CCN3C(=O)CC2 | > 4 mM (inactive) |
| COC(=O)Nc1nnc(-c2ccncc2)s1 | > 4 mM (inactive) |
| O=C(Oc1ccc(-c2nnco2)cc1)N1CCCCC1 | > 4 mM (inactive) |
| CC(=O)Nc1ccc2c(C)cc(=O)[nH]c2c1 | > 4 mM (inactive) |
| CCCc1nc2ccccc2c2nc(N)nn12 | > 4 mM (inactive) |
| O=C(N1CCOCC1)N1CCN(c2ccccn2)CC1 | > 4 mM (inactive) |
| NC(=O)C1CCN(S(=O)(=O)c2ccccc2)CC1 | > 4 mM (inactive) |
| O=C(Nc1ccccn1)C(=O)N1CCCC1 | > 4 mM (inactive) |
| CC(=O)Nn1cc2c(=O)n(C)c(=O)n(C)c2c1 | > 4 mM (inactive) |
| COc1ccc(/C=N/n2cn[nH]c2=S)cc1 | > 4 mM (inactive) |
| CNCc1ccccc1 | > 4 mM (inactive) |
| Nc1ccc2ncsc2c1 | > 4 mM (inactive) |
| CN(C)S(=O)(=O)c1ccc(C(=O)NN)cc1 | > 4 mM (inactive) |
| CCSc1nc2ccccc2n1CC(N)=O | > 4 mM (inactive) |
| CC(=O)Nc1c(C#N)c(C(C)(C)C)cn1C | > 4 mM (inactive) |
| NC(=O)c1ccccc1NC(=O)c1cccnc1 | > 4 mM (inactive) |
| COC(=O)C1=CCCN(C)C1 | > 4 mM (inactive) |

| SMILES | Kd |
| --- | --- |
| COc1c(-c2coc3cc4c(cc3c2=O)CC(O)C(C)(C)O4)ccc2c1C=CC(C)(C)O2 (centres undefined) | > 4 mM (inactive) |
| O=C(NCc1cccs1)c1ccncc1 | > 4 mM (inactive) |
| COc1ccc(C2=CC(=O)C=CC2=O)cc1 | > 4 mM (inactive) |
| NC(=O)c1cn(-c2ccccc2)nc1-c1cccnc1 | > 4 mM (inactive) |
| CC(=O)Nc1nc2c(s1)C(=O)NCCC2 | > 4 mM (inactive) |
| N#CCN1C(=O)c2ccccc2S1(=O)=O | > 4 mM (inactive) |
| C=C1C(=O)OC2CC1C(OC(C)=O)C/C(C)=C/CC/C(C)=C/CC[C@]2(C)O (some centres undefined) | > 4 mM (inactive) |
| COc1cc(O)ccc1C(C)=O | > 4 mM (inactive) |
| CC1=C(C(N)=O)C(c2ccccc2)NC(=O)N1 (centres undefined) | > 4 mM (inactive) |
| COc1ccc2c(c1)O[C@@H]1COc3cc(OC)c(OC)cc3[C@@H]1C2=O | > 4 mM (inactive) |
| Nc1ccc(-n2cncn2)cc1 | > 4 mM (inactive) |
| C/C=C/COc1nc2c(c(=O)n(C)c(=O)n2C)n1C | > 4 mM (inactive) |
| CC(=O)OC1CCC2(C)C(=CC=C3C2CCC2(C)C3CCC2C(C)/C=C/C(C)C(C)C)C1(C)C (centres undefined) | > 4 mM (inactive) |
| COc1cc(C)c2c(c1C=O)Oc1c(c(C)c(O)c3c1C(O)OC3=O)OC2=O (centres undefined) | > 4 mM (inactive) |
| Cc1ccc(/C=N/NC(N)=O)o1 | > 4 mM (inactive) |
| O=C1C2C3C=CC(C3)C2C(=O)N1c1nccs1 (centres undefined) | > 4 mM (inactive) |
| CCOC(=O)c1[nH]c(C)cc1C | > 4 mM (inactive) |
| O=C1CCC([N+](=O)[O-])C(c2ccccc2F)N1 (centres undefined) | > 4 mM (inactive) |
| COC(=O)CC1NC2CCCCC2NC1=O (centres undefined) | > 4 mM (inactive) |
| CC1=C2[C@H]3OC(=O)[C@@H](C)[C@@H]3CC[C@@]2(C)C=CC1=O | > 4 mM (inactive) |
| CCOC(=O)c1c(C)nc2cc(C)ccn12 | > 4 mM (inactive) |
| O=C1NCC(=O)N2CCc3ccccc3C12 (centres undefined) | > 4 mM (inactive) |
| Cc1noc(C)c1C(=O)N1CCC(Cc2ccccc2)CC1 | > 4 mM (inactive) |
| N#Cc1c[nH]n2c(=O)cc(Cc3ccccc3)nc12 | > 4 mM (inactive) |
